In US20100197604A1, “USE OF PEPTIDE AS A THERAPEUTIC AGENT” (priority 2007, published 2010):

System: drug-resistant Mycobacterium tuberculosis
Details: drug-resistant Mycobacterium tuberculosis growth; peptide 10 micrograms per ml; seven days

SMILES: CC[C@H](C)[C@H](NC(=O)[C@H](Cc1ccc(O)cc1)NC(=O)[C@@H](NC(=O)[C@H](CCCNC(=N)N)NC(=O)[C@@H](N)CC(=O)O)C(C)C)C(=O)N[C@@H](Cc1c[nH]cn1)C(=O)N1CCC[C@H]1C(=O)N[C@@H](Cc1ccccc1)C(=O)O [Angiotensin II]
- % inhibition: 0.0%
